Values joined by “and” are separate entries in the source; they are usually repeats but may differ in a detail not shown here. Equal values may be shown once.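 All cell lines were grown in 96-well plates and treated with compound for 48 hours. The concentration for 50% growth inhibition is given as GI50. TGI is the concentration that stops growth completely.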
Legend:
Assay in all cases: NCI-60 cell line screen, 48 h
HCC-2998 colon = system: HCC-2998 colon
HCT-15 colon = system: HCT-15 colon
K-562 leukemia = system: K-562 leukemia
NCI-H23 lung = system: NCI-H23 lung
PC-3 prostate = system: PC-3 prostate
SF-268 CNS = system: SF-268 CNS
SK-OV-3 ovarian = system: SK-OV-3 ovarian
SNB-75 CNS = system: SNB-75 CNS
SW-620 colon = system: SW-620 colon
HOP-62 NSCLC = system: HOP-62 NSCLC

## Cc1cccc(C(C)(C)C)c1NC(=O)/C(Cc1nc2ccc([N+](=O)[O-])cc2[nH]c1=O)=N/NC(=O)C[N+](C)(C)C
HCC-2998 colon
  TGI: > 100 µM
HCT-15 colon
  TGI: > 100 µM
K-562 leukemia
  TGI: > 100 µM
NCI-H23 lung
  TGI: > 100 µM
PC-3 prostate
  TGI: > 100 µM
SF-268 CNS
  TGI: > 100 µM
SK-OV-3 ovarian
  TGI: > 100 µM
SNB-75 CNS
  TGI: > 100 µM
SW-620 colon
  TGI: > 100 µM

## CC1(O)C=CC2CCC1C2O (stereo not drawn)
HCT-15 colon
  TGI: > 100 µM
HOP-62 NSCLC
  TGI: > 100 µM
K-562 leukemia
  TGI: > 100 µM
NCI-H23 lung
  TGI: > 100 µM
SF-268 CNS
  TGI: 93.7 µM
SK-OV-3 ovarian
  TGI: > 100 µM
SNB-75 CNS
  TGI: > 100 µM

## COc1cc2cc(C(=O)N3CC(CCl)c4c3cc(N)c3ccccc43)[nH]c2cc1OCCN(C)C (stereo not drawn)
HCC-2998 colon
  TGI: 0.535 µM
HCT-15 colon
  TGI: 5.45 µM
HOP-62 NSCLC
  TGI: 0.00741 µM
K-562 leukemia
  TGI: 1.12 µM
NCI-H23 lung
  TGI: 0.00833 µM
PC-3 prostate
  TGI: 5.5 µM
SF-268 CNS
  TGI: 0.712 µM
SK-OV-3 ovarian
  TGI: 0.881 µM

## CCOC(=O)C(C)(C)Oc1ccc2c(=O)cc(-c3ccccc3)oc2c1
HCC-2998 colon
  TGI: > 100 µM
HCT-15 colon
  TGI: 54.8 µM
HOP-62 NSCLC
  TGI: 41 µM
K-562 leukemia
  TGI: 31.2 µM
NCI-H23 lung
  TGI: 34.9 µM
SF-268 CNS
  TGI: 56.3 µM
SK-OV-3 ovarian
  TGI: > 100 µM
SNB-75 CNS
  TGI: 57.6 µM
SW-620 colon
  TGI: 48.5 µM

## Cc1cc(Cc2c(F)c(F)c(Cc3cc(C)no3)c(F)c2F)on1
HCT-15 colon
  TGI: > 100 µM
HOP-62 NSCLC
  TGI: 62.8 µM
K-562 leukemia
  TGI: > 100 µM
NCI-H23 lung
  TGI: > 100 µM
PC-3 prostate
  TGI: > 100 µM
SF-268 CNS
  TGI: > 100 µM
SK-OV-3 ovarian
  TGI: > 100 µM
SNB-75 CNS
  TGI: 76.7 µM

## Cc1cc(C)c(S(=O)(=O)N(CCCCN)OCCCN)c(C)c1
HCC-2998 colon
  TGI: 5.59 µM
K-562 leukemia
  TGI: 44.4 µM
NCI-H23 lung
  TGI: 43.2 µM
PC-3 prostate
  TGI: 27.6 µM
SF-268 CNS
  TGI: 34.3 µM
SK-OV-3 ovarian
  TGI: 31.8 µM
SNB-75 CNS
  TGI: 27.5 µM
SW-620 colon
  TGI: 32.6 µM

## O=C(c1ccccc1)c1c(C(F)(F)F)n([O-])c2ccccc2[n+]1=O
HCT-15 colon
  TGI: > 100 µM
HOP-62 NSCLC
  TGI: > 100 µM
NCI-H23 lung
  TGI: 3.71 µM
PC-3 prostate
  TGI: 2.27 µM
SNB-75 CNS
  TGI: 2.74 µM
SW-620 colon
  TGI: > 100 µM

## O=C1NC(=S)N/C1=C/c1ccccc1O
HCC-2998 colon
  TGI: > 100 µM
HCT-15 colon
  TGI: > 100 µM
HOP-62 NSCLC
  TGI: > 100 µM
NCI-H23 lung
  TGI: > 100 µM
PC-3 prostate
  TGI: > 100 µM
SF-268 CNS
  TGI: > 100 µM
SK-OV-3 ovarian
  TGI: > 100 µM
SW-620 colon
  TGI: > 100 µM

## C#CCNC(Cc1cnc[nH]1)C(=O)O (stereo not drawn)
HCT-15 colon
  TGI: > 100 µM
HOP-62 NSCLC
  TGI: > 100 µM
K-562 leukemia
  TGI: > 100 µM
PC-3 prostate
  TGI: > 100 µM
SF-268 CNS
  TGI: > 100 µM
SK-OV-3 ovarian
  TGI: > 100 µM
SNB-75 CNS
  TGI: > 100 µM
SW-620 colon
  TGI: > 100 µM

## CCCn1c(C23CC4CC(CC(C4)C2)C3)nc2ccc(Cl)cc2c1=O
HCT-15 colon
  TGI: > 100 µM
HOP-62 NSCLC
  TGI: 70.1 µM
K-562 leukemia
  TGI: > 100 µM
NCI-H23 lung
  TGI: > 100 µM
PC-3 prostate
  TGI: > 100 µM
SF-268 CNS
  TGI: > 100 µM
SK-OV-3 ovarian
  TGI: > 100 µM
SW-620 colon
  TGI: > 100 µM

## COC(=O)C1=C(O)C(C(=O)OC)[C@@]2(O)[C@@H](C(=O)OC)C(c3ccc(OC(=O)/C(=C/c4ccc(Cl)cc4)c4ccc(Cl)cc4)cc3)C[C@@H]1[C@@H]2C(=O)OC (stereo partly drawn)
HCT-15 colon
  TGI: > 100 µM
HOP-62 NSCLC
  TGI: > 100 µM
K-562 leukemia
  TGI: > 100 µM
NCI-H23 lung
  TGI: > 100 µM
PC-3 prostate
  TGI: > 100 µM
SF-268 CNS
  TGI: > 100 µM
SK-OV-3 ovarian
  TGI: > 100 µM
SNB-75 CNS
  TGI: > 100 µM
SW-620 colon
  TGI: > 100 µM

## CN=C(Nn1cnnc1)OC
HCC-2998 colon
  TGI: > 100 µM
HCT-15 colon
  TGI: > 100 µM
HOP-62 NSCLC
  TGI: > 100 µM
K-562 leukemia
  TGI: > 100 µM
NCI-H23 lung
  TGI: > 100 µM
PC-3 prostate
  TGI: > 100 µM
SK-OV-3 ovarian
  TGI: > 100 µM
SW-620 colon
  TGI: > 100 µM

## N#Cc1c(Nc2ccc(F)cc2)[n+]([O-])c2ccc(Cl)cc2[n+]1[O-]
HCT-15 colon
  TGI: 13.3 µM
HOP-62 NSCLC
  TGI: 42.2 µM
K-562 leukemia
  TGI: 8.56 µM
NCI-H23 lung
  TGI: 23.4 µM
PC-3 prostate
  TGI: > 100 µM
SF-268 CNS
  TGI: 14.2 µM
SK-OV-3 ovarian
  TGI: 36.7 µM
SNB-75 CNS
  TGI: 74.6 µM
SW-620 colon
  TGI: > 100 µM

## CN1CCn2c(Br)ccc2C1=O
HCC-2998 colon
  TGI: > 100 µM
HCT-15 colon
  TGI: > 100 µM
HOP-62 NSCLC
  TGI: > 100 µM
K-562 leukemia
  TGI: > 100 µM
NCI-H23 lung
  TGI: > 100 µM
SF-268 CNS
  TGI: > 100 µM
SW-620 colon
  TGI: > 100 µM

## CCOc1ccc2[nH]c3c(C)c4cc[n+](C)cc4c(C)c3c2c1
HCC-2998 colon
  TGI: 10.6 µM and 16.2 µM
HCT-15 colon
  GI50: 6.05 µM and > 35.6 µM
  TGI: > 100 µM
HOP-62 NSCLC
  GI50: 0.415 µM and 1.12 µM
  TGI: 4.76 µM and 6.01 µM
K-562 leukemia
  TGI: 24.5 µM and 18.3 µM
NCI-H23 lung
  TGI: 3.38 µM and 3.31 µM
SF-268 CNS
  TGI: 0.605 µM and 1.18 µM
SK-OV-3 ovarian
  TGI: 60.6 µM and 56.3 µM
SNB-75 CNS
  GI50: 0.18 µM and 0.0795 µM
  TGI: 0.452 µM and 0.291 µM
SW-620 colon
  TGI: 15.6 µM and > 83.8 µM

## COC(=O)c1ccc(-c2nc(C#N)c(N)o2)cc1
HCT-15 colon
  TGI: > 100 µM
HOP-62 NSCLC
  TGI: > 100 µM
K-562 leukemia
  TGI: > 100 µM
NCI-H23 lung
  TGI: > 100 µM
PC-3 prostate
  TGI: > 100 µM
SF-268 CNS
  TGI: > 100 µM
SK-OV-3 ovarian
  TGI: > 100 µM
SW-620 colon
  TGI: > 100 µM

## COc1cc([C@@H]2c3cc4c(cc3[C@@H](NC(=O)c3ccc(N)cc3)C3COC(=O)[C@@H]32)OCO4)cc(OC)c1O (stereo partly drawn)
HCC-2998 colon
  TGI: 17.2 µM
HCT-15 colon
  TGI: 32 µM
HOP-62 NSCLC
  TGI: 3.95 µM
K-562 leukemia
  TGI: 37.7 µM
NCI-H23 lung
  TGI: 4.97 µM
SF-268 CNS
  TGI: > 100 µM
SK-OV-3 ovarian
  TGI: 8.06 µM
SNB-75 CNS
  TGI: 6.56 µM
SW-620 colon
  TGI: 20.8 µM

## COc1cc(C2C3=C(CCC3=O)Oc3cc4c(cc32)OCO4)cc(OC)c1OC (stereo not drawn)
HCT-15 colon
  TGI: > 100 µM
HOP-62 NSCLC
  TGI: 0.742 µM
K-562 leukemia
  TGI: > 100 µM
NCI-H23 lung
  TGI: > 100 µM
SK-OV-3 ovarian
  TGI: > 100 µM
SNB-75 CNS
  TGI: 0.481 µM
SW-620 colon
  TGI: > 100 µM

Source: PubChem BioAssay (NCI)
